Test results reported in PubChem BioAssay (NCI).
Where “and” joins values, the source holds several entries; their conditions need not be identical. Equal values may be shown once.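 Five concentrations, 48 hours, 96-well plates. GI50: concentration for 50% inhibition of growth. TGI is the concentration that stops growth completely.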 *1 amine or outer side, *2 acyl side, *3 side chain or, on linkers, in order; H or OH if unused. Where a SMILES comes first, the peptide text is derived from it. [ ]: non-standard residue; d: D form. The star is where a group is joined. X12 = NCCCCC(N[*:1])C(=O)CN1CCCC1C(=O)[*:2]; Pentadecanoyl = CCCCCCCCCCCCCCC(=O)*

Columns and labels:
Test in all cases: growth of human tumour cells (NCI), 48 h
786-0 renal = tested on: 786-0 renal
KM12 colon = tested on: KM12 colon
IGROV1 ovarian = tested on: IGROV1 ovarian
SF-539 CNS = tested on: SF-539 CNS
UACC-257 melanoma = tested on: UACC-257 melanoma
HT29 colon = tested on: HT29 colon
MOLT-4 leukemia = tested on: MOLT-4 leukemia
NCI/ADR-RES ovarian = tested on: NCI/ADR-RES ovarian
SW-620 colon = tested on: SW-620 colon
NCI-H460 lung = tested on: NCI-H460 lung

SMILES | TGI (786-0 renal) | TGI (KM12 colon) | TGI (IGROV1 ovarian) | TGI (SF-539 CNS) | TGI (UACC-257 melanoma) | TGI (HT29 colon) | TGI (MOLT-4 leukemia) | TGI (NCI/ADR-RES ovarian) | TGI (SW-620 colon) | GI50 (KM12 colon) | GI50 (IGROV1 ovarian) | GI50 (UACC-257 melanoma) | GI50 (HT29 colon) | GI50 (NCI-H460 lung) | TGI (NCI-H460 lung) | GI50 (MOLT-4 leukemia) | GI50 (NCI/ADR-RES ovarian) | GI50 (SW-620 colon) | GI50 (SF-539 CNS)
CC(C)(C)C1=CC(O)(c2c3ccccc3c(C3(O)C=C(C(C)(C)C)C(=O)C(C(C)(C)C)=C3)c3ccccc23)C=C(C(C)(C)C)C1=O | > 100 µM | > 100 µM | > 100 µM | > 100 µM | > 100 µM | > 100 µM | > 100 µM | > 100 µM | > 100 µM |  |  |  |  |  |  |  |  |  | 
COc1ccc(Nc2ccnc3cc(Cl)ccc23)cc1CN(CCCl)CCCl |  | 9.75 µM | 4.19 µM |  | 5.96 µM | 6.42 µM | 2.61 µM | > 100 µM | 7.38 µM | 2.21 µM | 1.31 µM | 1.98 µM | 1.62 µM | 0.532 µM | 2.96 µM | 0.662 µM | 3.84 µM | 1.59 µM | 
CCOC(=O)/C=C/C(Br)=C(Br)/C=C/C(=O)OCC | 8.61 µM | 32.6 µM | 30.1 µM |  | 43.5 µM | 29.1 µM | 5.93 µM | 64.8 µM | 5.31 µM |  |  |  |  |  | > 100 µM |  |  |  | 
CC1CC2OC(=N)C1(C#N)C2(C#N)C#N (stereo unspecified) | 44.9 µM | > 100 µM | 51.4 µM | 56.7 µM | 41 µM | 47.7 µM | > 100 µM | > 100 µM | > 100 µM |  |  |  |  |  |  |  |  |  | 
CCCCCCCCCCCCCCC(=O)NC(CCCCN)C(=O)CN1CCCC1C(=O)NCC(=O)NC(Cc1ccccc1)C(=O)N1CCCC1C(=O)NC(CO)C(=O)NC(Cc1ccc(O)cc1)C(=O)NC(CCCCN)C(=O)NC(CC(C)C)C(=O)NC(CCCN=C(N)N)C(=O)N1CCCC1C(=O)NCC(N)=O (stereo unspecified) (Pentadecanoyl-[X12]GFPSYKLRPG-NH2; configuration not given here) |  | 38.7 µM | 57.3 µM | 59.9 µM | 52.1 µM | > 100 µM | 34.6 µM | 43.7 µM | 80.9 µM | 7.61 µM | 19.5 µM | 29.5 µM | 36.9 µM | 28.3 µM | 83.7 µM | 16.3 µM | 20.6 µM | 29.9 µM | 27.2 µM
COC1OC2COC(c3ccccc3)OC2C(OC(=S)c2ccccc2)C1O (stereo unspecified) |  |  | > 100 µM | 27.7 µM | > 100 µM | > 100 µM | > 100 µM | 79 µM | > 100 µM |  |  |  |  |  | > 100 µM |  |  |  | 
Cc1cccc(-c2cc(=O)c3cc(C)cnc3[nH]2)c1 | > 100 µM | 16.4 µM | > 100 µM | 2.62 µM | > 100 µM |  | > 100 µM | 0.394 µM |  |  |  |  |  |  | 13.1 µM |  |  |  | 
COc1cc(OC)cc(-c2nc3ccccc3c(=O)[nH]2)c1 | 66.2 µM | > 100 µM | > 100 µM |  | > 100 µM | > 100 µM | > 100 µM | > 100 µM | > 100 µM |  |  |  |  |  | > 100 µM |  |  |  | 
O=S1(=O)OCCOS(=O)(=O)C1S(=O)(=O)c1cccc2ccccc12 | > 100 µM | > 100 µM | > 100 µM |  | > 100 µM | > 100 µM | > 100 µM | > 100 µM | > 100 µM |  |  |  |  |  | > 100 µM |  |  |  | 
O=C(OCC(OC(=O)c1ccccc1)C1CC(C(O)C2CCCCC2)C(=O)O1)c1ccccc1 (stereo unspecified) | > 100 µM | > 100 µM | > 100 µM | 66.1 µM | > 100 µM |  | 47.9 µM | > 100 µM | > 100 µM |  |  |  |  |  | > 100 µM |  |  |  | 
O=C(c1cccs1)N(C(=O)N1CCCCC1)c1ccccc1 | > 100 µM | > 100 µM | > 100 µM | > 100 µM | > 100 µM | > 100 µM | > 100 µM | > 100 µM | > 100 µM |  |  |  |  |  |  |  |  |  | 
CC1=CCC(=O)[C@]2(C)C(CC(=O)O)[C@]3(C)C4=C(C)C(c5ccoc5)C[C@@H]4O[C@@H]3[C@H](O)[C@@H]12 (stereo partly specified) | > 100 µM | > 100 µM | > 100 µM | > 100 µM | > 100 µM |  | > 100 µM | > 100 µM | > 100 µM |  |  |  |  |  | > 100 µM |  |  |  | 
O=c1cc(-c2ccccc2)[nH]c2c(F)ccc(F)c12 | > 100 µM | > 100 µM | > 100 µM | > 100 µM | > 100 µM | > 100 µM | > 100 µM |  | > 100 µM |  |  |  |  |  | > 100 µM |  |  |  | 
CC(=O)O[C@H]1CC[C@]2(C=O)[C@H]3CC[C@]4(C)[C@@H](C5=CC(=O)OC5)CC[C@]4(O)[C@@H]3CC[C@]2(O)C1 |  |  | 3.99 µM | 0.26 µM | 1.63 µM | 1.05 µM | 0.0798 µM | 0.467 µM | 4.85 µM |  |  |  |  |  | 0.274 µM |  |  |  | 
C/C(=N/NC(=O)c1ccccc1Nc1ccccc1C(=O)N/N=C(\C)c1ccc(C)cc1)c1ccc(C)cc1 | > 100 µM | > 100 µM | > 100 µM |  | > 100 µM | > 100 µM | > 100 µM | > 100 µM | > 100 µM |  |  |  |  |  | > 100 µM |  |  |  | 
CN(C)CC(C)(C)C(=O)/C=C/c1ccccc1 | 29.9 µM | 28.5 µM | 59.7 µM | 32.3 µM | 27.2 µM | 33.9 µM | 60.4 µM |  | 31.1 µM |  |  |  |  |  | 74.6 µM |  |  |  | 
NS(=O)(=O)c1ccc(NS(=O)(=O)c2ccc(NC(=O)N(c3ccccc3)c3ccccc3)cc2)cc1 | > 100 µM | > 100 µM | > 100 µM |  | > 100 µM | > 100 µM | > 100 µM | > 100 µM | > 100 µM |  |  |  |  |  | > 100 µM |  |  |  | 
CCCCCC(=O)OCC1(CO)C/C(=C/CC(C(C)C)C(C)C)C(=O)O1 (stereo unspecified) | > 75 µM | 37.4 µM | 37.2 µM |  | > 75 µM | > 75 µM |  | > 75 µM | > 75 µM |  |  |  |  |  | > 75 µM |  |  |  | 
C/C(=N/OCCC(=O)O)C1CC1 | > 100 µM | > 100 µM | > 100 µM | > 100 µM |  | > 100 µM |  |  | > 100 µM |  |  |  |  |  | > 100 µM |  |  |  | 
CCC(C)Cn1c(C)nc2c1C(=O)c1ccccc1C2=O (stereo unspecified) | 75.4 µM | > 100 µM | > 100 µM | 59.5 µM | 62.3 µM | > 100 µM | > 100 µM |  | > 100 µM |  |  |  |  |  | 34.3 µM |  |  |  | 
Oc1cccc(-c2cn3cc(Cl)ccc3n2)c1 | > 100 µM | > 100 µM | > 100 µM |  | 77.5 µM | > 100 µM | > 100 µM | > 100 µM | > 100 µM |  |  |  |  |  | > 100 µM |  |  |  | 
Cc1cc(N)c2cc(NC(=O)CCCCCCCCC(=O)Nc3ccc4nc(C)cc(N)c4c3)ccc2n1 | > 100 µM | > 68.4 µM | > 100 µM | 26.5 µM | 96.9 µM | > 100 µM | > 39.8 µM |  | > 100 µM |  |  |  |  |  | > 100 µM |  |  |  | 
COc1ccc(OC)c([N+](=O)[O-])c1-c1nc2sc(C)cn2c1/C=N/N=C(N)N | > 100 µM | 72.9 µM | 33 µM | > 100 µM | 47 µM | 50.1 µM |  | > 100 µM | > 100 µM |  |  |  |  |  | > 100 µM |  |  |  | 
CCOC(=O)CCN1C(=O)c2c(NC(=O)C(=O)O)cccc2S1(=O)=O | > 100 µM | > 100 µM | > 100 µM |  | > 100 µM | > 100 µM | > 100 µM | > 100 µM | > 100 µM |  |  |  |  |  | > 100 µM |  |  |  | 
N#Cc1c(NC(=S)Nc2ccccc2)sc2c1CCCC2 | > 100 µM | > 100 µM | > 100 µM |  | > 100 µM | > 100 µM | > 100 µM | > 100 µM | > 100 µM |  |  |  |  |  | > 100 µM |  |  |  | 
CC1C/C(=C\c2ccc(O)c(O)c2)C(=O)/C(=C/c2ccc(O)c(O)c2)C1 (stereo unspecified) |  | 20.9 µM | 19.8 µM | 13 µM | 28.7 µM | 34.2 µM | 20.3 µM | 57.7 µM | 34.6 µM |  |  |  |  |  | 32.2 µM |  |  |  | 
CC1=NNC(N)=N/C1=C\C(Sc1ccc(Cl)cc1)c1ccc(Cl)cc1Cl (stereo unspecified) | 75.9 µM | 34.2 µM | 21.9 µM |  | 39.9 µM | 14.2 µM | > 100 µM | 39 µM | 59.9 µM |  |  |  |  |  | 29.3 µM |  |  |  | 
O=C1CSC2=NC3=C(COC/C3=C\c3ccc(F)cc3)C(c3ccc(F)cc3)N12 (stereo unspecified) | > 100 µM | > 100 µM | > 100 µM | > 100 µM | > 100 µM |  | > 100 µM | > 100 µM | > 100 µM |  |  |  |  |  | > 100 µM |  |  |  | 
c1ccc(C2C3=C(CCCC3)Nc3nnnn32)cc1 (stereo unspecified) | > 100 µM | > 100 µM | > 100 µM | > 100 µM | > 100 µM |  | > 100 µM | > 100 µM | > 100 µM |  |  |  |  |  | > 100 µM |  |  |  | 
COc1cccc2c1C(=O)c1c(O)c3c(c(O)c1C2=O)C[C@@](O)(C(=O)CO)CC3OC1CC(NCCCCC(OC(C)=O)OC(C)=O)C(O)C(C)O1 (stereo partly specified) | > 1 µM | 0.00774 µM and 0.022 µM | > 1 µM | 0.00421 µM and 0.0374 µM | 0.00798 µM | 0.0125 µM | 0.00909 µM and 0.00236 µM |  | > 1 µM |  | 0.00355 µM | 0.00286 µM | 0.00103 µM |  | 0.319 µM | 0.000378 µM |  | 0.00175 µM | 0.00296 µM
